Source: patent publication US20100075919A1, “COMPOSITIONS COMPRISING ALKYLDIMONIUM HYDROXYPROPYL ALKYLGLUCOSIDES” (priority 2008, published 2010)

Legend:
[1] = test system: three bacterium and two fungal strains; experiment: Testing of commercially available alkyldimonium hydroxypropyl alkylglucosides for biocidal efficacy in aqueous buffered borate solution; type: cell-based
[2] = test system: A. Niger; experiment: Preservative efficacy response study against A. Niger in borate-buffered solution; type: cell-based; conditions: S-1218 in the solutions with or without PHMB
Excerpt: A “preservative-effective amount” is defined as a sufficient amount of alkyldimonium hydroxypropyl alkylglucoside of general formula I or general formula II in the formulation to reduce the cell population by two log orders after 7 days of the five following microorganisms, Staphylococcus aureus, Pseudomonas aeruginosa, Eschrechia coli, Candida albicans and Aspergillus niger, or that which will prevent the growth of fungal bioburden by ±0.5 log.
Data obtained from a preservative efficacy response study of S-1218 with or without the stated concentrations of PHMB in borate-buffered solution containing 0.85 wt. % sodium borate, 0.06 wt. % boric acid and 0.26 wt. % sodium chloride is provided in Tables 3A and 3B. The study also included a response against S. Aureus, P. Aeruginosa, E. Coli, and C. Albicans.
Data obtained from a preservative efficacy response study of select alkyldimonium hydroxypropyl alkylglucosides of general formula I or general formula II in borate-buffered solution containing 0.85 wt. % sodium borate, 0.06 wt. % boric acid and 0.26 wt. % sodium chloride is provided in Table 4. Example 9 includes 0.2 wt. % S-1218; Example 10 includes 0.2 wt. % S-1010P; Example 11 includes 0.2 wt. % L-1210P; and Example 12 includes 0.2 wt. % S-1010. The study also included a response against S. Aureus, P. Aeruginosa, E. Coli, and C. Albicans.

| Substance | biocidal efficacy (in words) [1] | biocidal control of A. Niger (in words) [2] |
| --- | --- | --- |
| stearyl dimonium hydropropyl laurylglucoside | relatively high increase in biocidal efficacy | – |
| stearyldimonium hydropropyl decylglucoside | relatively high increase in biocidal efficacy | – |
| stearyldimonium hydroxypropyl laurylglucosides chloride [Example S-1218] | – | significant biocidal control |
